The values below come from patent publication US20250034167A1, “HETEROCYCLIC COMPOUNDS AND METHODS OF USE” (AMGEN INC., priority 2021, published 2025).

The test system of test [1] is Phosphorylation of ERK1/2 in AsPC-1 cells. Description: Phospho-ERK1/2 MSD Assay. Type of test: cell-based. The protocol: Sixteen hours prior to compound treatment, AsPC-1 cells were seeded in 96-well cell culture plates at a density of 25,000 cells/well and incubated at 37° C., 5% CO2. A compound dose-response titration was diluted in growth media, added to appropriate wells of a cell culture plate, and then incubated at 37° C., 5% CO2 for 2 hours.

Test [2] concerns the target His-tagged KRAS G12D protein (Homo sapiens, UniProt P01116, G12D). Put plainly: biochemical.
Method: The plate was incubated for 30 minutes at room temperature. Biotinylated KRPep-2d substrate (Amgen) was diluted to nM in Assay Buffer and 2 μL was added to all wells and incubated for 1 hour at room temperature. Detection Reagent (0.4 nM LANCE Eu-W1024 Anti-6×His (Perkin Elmer AD0401), 5 nM streptavidin-d2 (Cisbio 610SADLA)) was prepared in Assay Buffer, then 4 µL was added to the plate and incubated for 1 hour at room temperature.
Where [3] appears, read: Homo sapiens, ASPC1, 2 h, read-out: 2 h p-ERK (AsPC-1 cells), IC50, AsPC-1 cells, 2 h compound treatment.
Where [4] appears, read: read-out: 2 h p-ERK (AsPC-1 cells), IC50, AsPC-1 cells, 2 h compound treatment.

Like-named read-outs stand apart in the source and are kept apart here.

Chain of His-tagged KRAS G12D protein (P01116 1-188 isoform P01116-2 G12D): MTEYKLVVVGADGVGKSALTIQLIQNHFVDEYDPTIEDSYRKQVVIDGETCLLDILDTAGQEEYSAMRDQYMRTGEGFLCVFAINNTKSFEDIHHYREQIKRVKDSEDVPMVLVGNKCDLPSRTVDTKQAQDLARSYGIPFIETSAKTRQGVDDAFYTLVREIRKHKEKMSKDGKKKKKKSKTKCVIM

In the case of `CCc1c(F)ccc2cc(O)cc(-c3ncc4c(N5C[C@@H](O)C[C@H](F)C5)nc(OC[C@@]56CCCN5C[C@H](F)C6)nc4c3F)c12` (racemic) [Example 116, rac-(35,5S)-1-(7-(8-Ethyl-7-fluoro-3-hydroxynaphthalen-1-yl)-8-fluoro-2-(((2R,7aS)-2-fluorotetrahydro-1H-pyrrolizin-7a(5H)-yl)methoxy)pyrido[4,3-d]pyrimidin-4-yl)-5-fluoropiperidin-3-ol], the IC50 is 792 nM in test [1] (setting [3]) and 4 nM in test [2].

Regarding `CCc1c(F)ccc2cc(O)cc(-c3ncc4c(N5CCC[C@H]6OCC[C@H]65)nc(OC[C@@]56CCCN5C[C@H](F)C6)nc4c3F)c12` (relative stereo) [Example 42, rel-5-Ethyl-6-fluoro-4-(8-fluoro-2-(((2R,7aS)-2-fluorotetrahydro-1H-pyrrolizin-7a(5H)-yl)methoxy)-4-((3aR,7aR)-hexahydrofuro[3,2-b]pyridin-4(2H)-yl)pyrido[4,3-d]pyrimidin-7-yl)naphthalen-2-ol], the IC50 came to 810 nM in test [1] (setting [3]) and 38 nM in test [2].

Take `CCc1c(F)ccc2cc(O)cc(-c3ncc4c(N5CC[C@H](O)[C@H](O)C5)nc(OC[C@@]56CCCN5C[C@H](F)C6)nc4c3F)c12` (relative stereo) [Example 100, rel-(3R,4S)-1-(7-(8-Ethyl-7-fluoro-3-hydroxynaphthalen-1-yl)-8-fluoro-2-(((2R,7aS)-2-fluorotetrahydro-1H-pyrrolizin-7a(5H)-yl)methoxy)pyrido[4,3-d]pyrimidin-4-yl)piperidine-3,4-diol]: the concentration for half-maximal inhibition (IC50) in test [1] (setting [3]) is 3700 nM; in test [2], 9 nM.

Regarding `CCc1c(F)ccc2cc(O)cc(-c3ncc4c(N5CC[C@H](O)[C@@H](O)C5)nc(OC[C@@]56CCCN5C[C@H](F)C6)nc4c3F)c12` (relative stereo) [Example 101, rel-(3S,4S)-1-(7-(8-Ethyl-7-fluoro-3-hydroxynaphthalen-1-yl)-8-fluoro-2-(((2R,7aS)-2-fluorotetrahydro-1H-pyrrolizin-7a(5H)-yl)methoxy)pyrido[4,3-d]pyrimidin-4-yl)piperidine-3,4-diol], the IC50 in test [1] (setting [3]) was over 10000 nM; in test [2] it was 20 nM.

Take `CCc1c(F)ccc2cc(O)cc(-c3ncc4c(N5C[C@H](C)C[C@@H](O)C5)nc(OC[C@@]56CCCN5C[C@H](F)C6)nc4c3F)c12` (relative stereo) [Example 160, rel-(3R,5R)-1-(7-(8-Ethyl-7-fluoro-3-hydroxy-naphthalen-1-yl)-8-fluoro-2-(((2R,7aS)-2-fluorotetrahydro-1H-pyrrolizin-7a(5H)-yl)methoxy)pyrido[4,3-d]pyrimidin-4-yl)-5-methylpiperidin-3-ol]: the half-maximal inhibitory concentration (IC50) was 414 nM in test [1] (setting [3]) and 3 nM in test [2].

As to `CCc1c(F)ccc2cc(O)cc(-c3ncc4c(N5CC6CC(O)C(C6)C5)nc(OC[C@@]56CCCN5C[C@H](F)C6)nc4c3F)c12` (single isomer, unassigned) [Example 23], the IC50 was found to be 2380 nM in test [1] (setting [4]) and 31 nM in test [2].

Consider `CCc1c(F)ccc2cc(O)cc(-c3ncc4c(N5CC6CC(O)C(C6)C5)nc(OC[C@@]56CCCN5C[C@H](F)C6)nc4c3F)c12` (single isomer, unassigned) [Example 24], for which the IC50 in test [1] (setting [4]) came to 14 nM; in test [2], 2 nM.

Consider `C#Cc1c(F)ccc2cc(O)cc(-c3ncc4c(N5CC6CC(O)C(C6)C5)nc(OC[C@@]56CCCN5C[C@H](F)C6)nc4c3F)c12` (single isomer, unassigned) [Example 27], for which the IC50 in test [1] (setting [4]) came to 1030 nM; in test [2], 6 nM.

On to `C#Cc1c(F)ccc2cc(O)cc(-c3ncc4c(N5CC6CC(O)C(C6)C5)nc(OC[C@@]56CCCN5C[C@H](F)C6)nc4c3F)c12` (single isomer, unassigned) [Example 28], for which the IC50 in test [1] (setting [4]) worked out at 36 nM; in test [2], 1 nM.

As to `CCc1cccc2cc(O)cc(-c3ncc4c(N5CC6CC(O)C(C6)C5)nc(OC[C@@]56CCCN5C[C@H](F)C6)nc4c3F)c12` (single isomer, unassigned) [Example 29], the IC50 in test [1] (setting [3]) is 31 nM; in test [2], 1 nM.

`Oc1cc(Cl)c(C2CC2)c(-c2ncc3c(N4CC5CC(O)C(C5)C4)nc(OC[C@@]45CCCN4C[C@H](F)C5)nc3c2F)c1` (single isomer, unassigned) [Example 30]: the IC50 in test [1] (setting [3]) came to 399 nM; in test [2] it was 3 nM.

For `C#Cc1cccc2cc(O)cc(-c3ncc4c(N5CC6CC(O)C(C6)C5)nc(OC[C@@]56CCCN5C[C@H](F)C6)nc4c3F)c12` (single isomer, unassigned) [Example 31], the figures for the 50% inhibitory concentration (IC50) in test [1] (setting [3]) and in test [2] were 32 nM and 2 nM, respectively.

Turning to `CCc1c(F)ccc2cc(O)cc(-c3ncc4c(N5CCCC(O)(C(F)F)C5)nc(OC[C@@]56CCCN5C[C@H](F)C6)nc4c3F)c12` (single isomer, unassigned) [Example 39], the values for the IC50 in test [1] (setting [4]) and in test [2] were 13 nM and 2 nM, respectively.

In the case of `CCc1c(F)ccc2cc(O)cc(-c3ncc4c(N5CCCC(O)(C(F)F)C5)nc(OC[C@@]56CCCN5C[C@H](F)C6)nc4c3F)c12` (single isomer, unassigned) [Example 40], the results for the IC50 in test [1] (setting [4]) and in test [2] were 571 nM and 15 nM, respectively.

As for `C#Cc1c(F)ccc2cc(O)cc(-c3ncc4c(N5CCCC(O)(C(F)F)C5)nc(OC[C@@]56CCCN5C[C@H](F)C6)nc4c3F)c12` (single isomer, unassigned) [Example 41], the results for the IC50 in test [1] (setting [3]) and in test [2] were 25 nM and 1 nM, respectively.

Regarding `CCc1c(F)ccc2cc(O)cc(-c3ncc4c(N5CCCC(C#N)CC5)nc(OC[C@@]56CCCN5C[C@H](F)C6)nc4c3F)c12` (single isomer, unassigned) [Example 54], the 50% inhibitory concentration (IC50) in test [1] (setting [4]) is 116 nM; in test [2], 3 nM.

`CCc1c(F)ccc2cc(O)cc(-c3ncc4c(N5CCCCC(C)(O)C5)nc(OC[C@@]56CCCN5C[C@H](F)C6)nc4c3F)c12` (single isomer, unassigned) [Example 136]: the IC50 is 614 nM in test [1] (setting [4]) and 10 nM in test [2].

Take `CCc1c(F)ccc2cc(O)cc(-c3ncc4c(N5CCCCC(C)(O)C5)nc(OC[C@@]56CCCN5C[C@H](F)C6)nc4c3F)c12` (single isomer, unassigned) [Example 137]: the IC50 was determined as 40 nM in test [1] (setting [4]) and 2 nM in test [2].

In the case of `CCc1c(F)ccc2cc(O)cc(-c3ncc4c(N5CC6CC(C#N)C(C6)C5)nc(OC[C@@]56CCCN5C[C@H](F)C6)nc4c3F)c12` (single isomer, unassigned) [Example 145], the IC50 turned out to be 593 nM in test [1] (setting [4]) and 8 nM in test [2].

In the case of `CCc1c(F)ccc2cc(O)cc(-c3ncc4c(N5CC6CC(C#N)C(C6)C5)nc(OC[C@@]56CCCN5C[C@H](F)C6)nc4c3F)c12` (single isomer, unassigned) [Example 146], the IC50 in test [1] (setting [4]) was 233 nM; in test [2], 2 nM.

As to `CCc1c(F)ccc2cc(O)cc(-c3ncc4c(N5CC(C)CC(C(N)=O)C5)nc(OC[C@@]56CCCN5C[C@H](F)C6)nc4c3F)c12` (single isomer, unassigned) [Example 163], the IC50 amounted to 2730 nM in test [1] (setting [4]) and 11 nM in test [2].

Regarding `CCc1c(F)ccc2cc(O)cc(-c3ncc4c(N5CC(C)CC(C(N)=O)C5)nc(OC[C@@]56CCCN5C[C@H](F)C6)nc4c3F)c12` (single isomer, unassigned) [Example 164], the half-inhibitory concentration (IC50) in test [1] (setting [4]) came to 1200 nM; in test [2], 3 nM.

In the case of `CCC1CCCc2cc(O)cc(-c3ncc4c(N5CCC[C@@](C)(O)C5)nc(OC[C@@]56CCCN5C[C@H](F)C6)nc4c3F)c21` (single isomer, unassigned) [Example 173], the IC50 in test [1] (setting [3]) was determined as 22 nM; in test [2], 4 nM.

As for `CCc1c(F)ccc2cc(O)cc(-c3ncc4c(N5CCC[C@@H](S(N)(=O)=O)C5)nc(OC[C@@]56CCCN5C[C@H](F)C6)nc4c3F)c12` [Example 1, (R)-1-(7-(8-Ethyl-7-fluoro-3-hydroxynaphthalen-1-yl)-8-fluoro-2-(((2R,7aS)-2-fluorotetrahydro-1H-pyrrolizin-7a(5H)-yl)methoxy)pyrido[4,3-d]pyrimidin-4-yl)piperidine-3-sulfonamide], the half-maximal inhibitory concentration (IC50) in test [1] (setting [3]) stood at 165 nM; in test [2], 1 nM.

Regarding `CCc1c(F)ccc2cc(O)cc(-c3ncc4c(N5CCCCCC5)nc(OC[C@@]56CCCN5C[C@H](F)C6)nc4c3F)c12` [Example 2, 4-(4-(Azepan-1-yl)-8-fluoro-2-(((2R,7aS)-2-fluorotetrahydro-1H-pyrrolizin-7a(5H)-yl)methoxy)pyrido[4,3-d]pyrimidin-7-yl)-5-ethyl-6-fluoronaphthalen-2-ol], the IC50 in test [1] (setting [3]) amounted to 115 nM; in test [2], 1 nM.

As to `CCc1c(F)ccc2cc(O)cc(-c3ncc4c(N5CCC(C(N)=O)C5)nc(OC[C@@]56CCCN5C[C@H](F)C6)nc4c3F)c12` (stereo partly drawn) [Example 3, 1-(7-(8-Ethyl-7-fluoro-3-hydroxynaphthalen-1-yl)-8-fluoro-2-(((2R,7aS)-2-fluorotetrahydro-1H-pyrrolizin-7a(5H)-yl)methoxy)pyrido[4,3-d]pyrimidin-4-yl)pyrrolidine-3-carboxamide], the IC50 in test [1] (setting [3]) was over 10000 nM; in test [2], 9 nM.

Turning to `CCc1c(F)ccc2cc(O)cc(-c3ncc4c(N5CCC[C@H]5C(N)=O)nc(OC[C@@]56CCCN5C[C@H](F)C6)nc4c3F)c12` [Example 4, (S)-1-(7-(8-Ethyl-7-fluoro-3-hydroxynaphthalen-1-yl)-8-fluoro-2-(((2R,7aS)-2-fluorotetrahydro-1H-pyrrolizin-7a(5H)-yl)methoxy)pyrido[4,3-d]pyrimidin-4-yl)pyrrolidine-2-carboxamide], the results for the IC50 in test [1] (setting [3]) and in test [2] were over 10000 nM and 21 nM, respectively.

As usually defined, the IC50 is the midpoint of a concentration-inhibition curve.
